# PubChem BioAssay AID1996
# Residues, ends and D or L forms follow the SMILES beside them.
# Conditions: buffer; pH 7.4; 200.0 µM
row,solubility kinetic,Structure (SMILES)
1,0.033 mg/mL,CSc1cccc(N=C2C(=O)Nc3ccccc32)c1
2,0.0349 mg/mL,Cc1ccc(C(=O)NCCNC(=O)c2cnccn2)cc1
3,0.036 mg/mL,COc1ccc(Nc2ncnc3sccc23)cc1
4,0.017 mg/mL,CN(Cc1ccccc1F)C(=O)c1ccccc1Sc1ccccc1C#N
5,< 0.0007 mg/mL,Cc1oc(C(C)(C)C)cc1C(=O)NCc1ccc2c(c1)OCO2
6,0.0334 mg/mL,Cc1ccc(CSCC(=O)Nc2ccccc2)cc1
7,0.0212 mg/mL,COc1ccc(Nc2nc(N)c([N+](=O)[O-])c(N3CCOCC3)n2)cc1
8,> 0.0484 mg/mL,COCCC(=O)Nc1ccc2c(c1)CN(C(=O)CSC)CC2
9,0.0053 mg/mL,CC(C)CC(=O)Nc1ccc(C(=O)COC(=O)C2CCC2)cc1
10,> 0.0441 mg/mL,COC(=O)[C@H](Cc1ccccc1)NC(=O)[C@@H](N)CC(=O)O (H-Asp-Phe-OMe)
11,0.0429 mg/mL,O=C(c1cc(=O)[nH]c2ccccc12)N1CCc2ccccc2C1
12,< 0.0003 mg/mL,CN(C(=O)Nc1cccc(C(F)(F)F)c1)C1CCCCC1
13,0.0007 mg/mL,NC(=O)c1c(NC(=O)c2ccccc2Cl)sc2c1CCC2
14,< 0.0006 mg/mL,COc1ccc(C(=O)Nc2ccc3ccccc3c2)cc1
15,0.0103 mg/mL,O=C1CN(C(=O)COc2ccc(Br)cc2)c2ccccc2N1
16,0.0007 mg/mL,O=[N+]([O-])c1ccc(NCCc2ccccc2)c(Br)c1
17,0.0226 mg/mL,Cc1ccc(OCC(=O)N2CCCCCCC2)cc1C
18,0.0161 mg/mL,CSc1nc2ccc(NC(=O)c3ccc(=O)[nH]c3)cc2s1
19,0.0055 mg/mL,O=C1c2ccccc2NC(c2ccccc2O)N1c1ccc(F)cc1 (stereo not given)

row,solubility kinetic,Structure (SMILES)
1,0.0279 mg/mL,CCCOc1ccc(/C=C2/C(=O)ON=C2C)cc1Cl
2,0.03 mg/mL,Cc1noc(C)c1S(=O)(=O)N1CCC(C(=O)c2ccccc2)CC1
3,> 0.0448 mg/mL,Cc1csc(SCC(=O)NC(=O)C2CCCCC2)n1
4,0.0025 mg/mL,COC(=O)c1ccc(C(=O)Nc2ccc(C(C)C)cc2N)cc1
5,0.0199 mg/mL,CC(Oc1ccccc1)C(=O)N1CCN=C1SCc1ccccc1 (stereo not given)
6,> 0.0457 mg/mL,O=C(C1CC(=O)N(c2ccc(F)cc2)C1)N1CCCCCC1 (stereo not given)
7,> 0.047 mg/mL,COc1ccc(S(=O)(=O)N2CN3CCN(C3)C2)cc1OC
8,> 0.0332 mg/mL,O=C(O)CCCNC(=O)Cc1ccccc1
9,0.0315 mg/mL,CNCc1ccccc1Sc1ccc(O)c(O)c1.O=C([O-])/C=C\C(=O)[O-]
10,> 0.0451 mg/mL,NC(=O)CSc1nnc(-c2ccco2)n1-c1ccccc1
11,> 0.0369 mg/mL,Cc1cccc(Nc2ncnc(N)c2[N+](=O)[O-])n1
12,0.0245 mg/mL,CCOc1cc(/C=C\[N+](=O)[O-])ccc1OCC(=O)N1CCOCC1
13,> 0.0488 mg/mL,CC(OC(=O)c1ccccc1Oc1ccccc1)C(=O)NC1CC1 (stereo not given)
14,0.0097 mg/mL,Cc1ccc(C(=O)CCC(=O)NCc2ccc(Cl)cc2)cc1
15,0.0473 mg/mL,O=C(c1cccs1)N1CCN(S(=O)(=O)c2cccs2)CC1
16,0.0278 mg/mL,N#Cc1cnc(N)c(Br)c1
17,> 0.041 mg/mL,O=C(CC1NCCNC1=O)NC1Cc2ccccc2C1 (stereo not given)
18,0.0037 mg/mL,COc1cc(-c2cc(C(=O)OCC(=O)NC3CC3)c3ccccc3n2)cc(OC)c1OC
19,> 0.0403 mg/mL,O=C(CN1CCOCC1)NCc1ccccc1Cl

row,solubility kinetic,Structure (SMILES)
1,> 0.0662 mg/mL,CN(C)C(CNC(=O)c1cc(S(=O)(=O)N2CCOCC2)ccc1F)c1cccs1 (stereo not given)
2,> 0.0524 mg/mL,CN(CC(=O)Nc1cccc([N+](=O)[O-])c1)S(=O)(=O)c1ccccc1
3,> 0.0493 mg/mL,COc1ccccc1CC(=O)N1CCN(c2ccc(F)cc2)CC1
4,0.0443 mg/mL,O=C1CC(c2ccccc2Cl)CC(O)=C1C=NCCCO (stereo not given)
5,0.0017 mg/mL,Nc1cccc(NP(=O)(c2ccccc2)c2ccccc2)c1
6,< 0.0007 mg/mL,C/C(=N/OC(=O)c1ccc(Br)cc1)c1ccc(C)cc1
7,0.001 mg/mL,CC(C)C(=O)NC(=S)Nc1ccc(S(=O)(=O)NC2CCCCC2)cc1
8,0.0115 mg/mL,O=C(CSc1nccc(=O)[nH]1)Nc1ccc(Oc2ccccc2)cc1
9,> 0.0481 mg/mL,COc1ccccc1C(C)NCC(=O)Nc1c(F)cccc1F (stereo not given)
10,> 0.0434 mg/mL,COCc1nnc(NC(=O)c2cc3ccccc3o2)s1
11,0.0029 mg/mL,CCn1cc(C(=O)NCc2ccccc2F)c(=O)c2ccc(C)nc21
12,> 0.0407 mg/mL,CN(C)c1ccc(/C=N/NC(=O)c2ccn(C)n2)cc1
13,0.0068 mg/mL,Cc1ccc(NC(=O)COc2cccc3c2OC(C)(C)C3)c(O)c1
14,> 0.0557 mg/mL,O=C(N/C(=C/c1ccco1)C(=O)N1CCOCC1)c1ccc([N+](=O)[O-])cc1
15,> 0.0532 mg/mL,O=C(COC(=O)CSc1ccc([N+](=O)[O-])cc1)NCC1CCCO1 (stereo not given)
16,0.0105 mg/mL,c1ccc2c(c1)CCc1c-2nc2ccccc2c1N1CCOCC1
17,> 0.0418 mg/mL,CCn1ccnc1C(O)(c1ccccc1)c1ccccc1
18,< 0.0004 mg/mL,Cc1ccc2nc(NC(=O)c3ccc(Br)o3)sc2c1

row,Structure (SMILES),solubility kinetic
1,c1ccc(P(c2ccccc2)c2ccccn2)cc1,0.01 mg/mL
2,CN1CCN(c2nc(Cl)ncc2F)CC1,> 0.0346 mg/mL
3,COc1nc(C)nc(NC(=O)NS(=O)(=O)c2ccccc2Cl)n1,> 0.0537 mg/mL
4,COc1ccc(C)cc1NC1=NC(C)(C)CS1,0.0361 mg/mL
